Data: ChEMBL document CHEMBL5120907, “Triculamin: An Unusual Lasso Peptide with Potent Antimycobacterial Activity” (J Nat Prod, 2022)
Values after ≈ are worked out from the molar mass of the structure shown. Where a SMILES comes first, the peptide text is derived from it. Bridges are numbered along the chain shown (N, C = ends).

Tests used:
Bacillus cereus [1] = assay: Antibacterial activity against Bacillus cereus DSM 31 assessed as reduction in bacterial growth measured after 3 days by broth microdilution method; type: functional; conditions: DSM 31, 72 h, time 3 day
Enterococcus faecium [2] = assay: Bactericidal activity against Enterococcus faecium DSM 20477 assessed as reduction in colony count and measured after 3 days by agar diffusion assay; type: functional; conditions: DSM 20477, 72 h, time 3 day
Pseudomonas aeruginosa [3] = assay: Bactericidal activity against Pseudomonas aeruginosa DSM 19880 assessed as reduction in colony count and measured after 3 days by agar diffusion assay; type: functional; conditions: DSM 19880, 72 h, time 3 day
[4] = test system: Mycolicibacterium smegmatis; assay: Bactericidal activity against Mycobacterium smegmatis DSM 43080 assessed as reduction in colony count and measured after 3 days by agar diffusion assay; type: functional; conditions: DSM 43080, 72 h, time 3 day
[5] = test system: Mycolicibacterium smegmatis; assay: Antimycobacterial activity against Mycobacterium smegmatis DSM 43080 assessed as reduction in bacterial growth at late-exponential phase at 10 times of MIC measured up to 48 hrs by time killing assay; type: functional, organism-based; conditions: TDE = time-dependent effect
[6] = test system: Mycolicibacterium smegmatis; assay: Antimycobacterial activity against Mycobacterium smegmatis DSM 43080 assessed as reduction in bacterial growth at mid-exponential phase at 10 times of MIC and measured up to 24 hrs by time killing assay; type: functional, organism-based; conditions: TDE = time-dependent effect
Klebsiella oxytoca [7] = assay: Antibacterial activity against Klebsiella oxytoca DSM 5175 assessed as reduction in bacterial growth measured after 3 days by broth microdilution method; type: functional; conditions: DSM 5175, 72 h, time 3 day
[8] = Stability of the compound assessed as carboxypeptidase Y mediated compound digestion pretreated at 95 degreeC for 4 hrs followed by protease addition incubated for 4 hrs by HPLC analysis; type: ADME
[9] = Stability of the compound assessed as carboxypeptidase Y mediated compound digestion by measuring Mycobacterium smegmatis DSM 43080 zone of inhibition incubated for 4 hrs by agar diffusion assay; type: ADME
Acinetobacter baumannii [10] = assay: Antibacterial activity against Acinetobacter baumannii […] assessed as reduction in bacterial growth measured after 3 days by broth microdilution method; type: functional; conditions: 72 h, time 3 day
Enterobacter cloacae [11] = assay: Antibacterial activity against Enterobacter cloacae DSM 30054 assessed as reduction in bacterial growth measured after 3 days by broth microdilution method; type: functional; conditions: DSM 30054, 72 h, time 3 day
Pseudomonas aeruginosa [12] = assay: Antibacterial activity against Pseudomonas aeruginosa DSM 19880 assessed as reduction in bacterial growth measured after 3 days by broth microdilution method; type: functional; conditions: DSM 19880, 72 h, time 3 day
Bacillus cereus [13] = assay: Bactericidal activity against Bacillus cereus DSM 31 assessed as reduction in colony count and measured after 3 days by agar diffusion assay; type: functional; conditions: DSM 31, 72 h, time 3 day
Mycolicibacterium phlei [14] = assay: Bactericidal activity against Mycobacterium phlei DSM 43239 assessed as reduction in colony count and measured after 3 days by agar diffusion assay; type: functional; conditions: DSM 43239, 72 h, time 3 day
Acinetobacter baumannii [15] = assay: Bactericidal activity against Acinetobacter baumannii […] assessed as reduction in colony count and measured after 3 days by agar diffusion assay; type: functional; conditions: 72 h, time 3 day
Enterococcus faecium [16] = assay: Antibacterial activity against Enterococcus faecium DSM 20477 assessed as reduction in bacterial growth measured after 3 days by broth microdilution method; type: functional; conditions: DSM 20477, 72 h, time 3 day
[17] = test system: Mycolicibacterium smegmatis; assay: Antibacterial activity against Mycobacterium smegmatis DSM 43080 assessed as reduction in bacterial growth measured after 3 days by broth microdilution method; type: functional; conditions: DSM 43080, 72 h, time 3 day
[18] = Thermal stability of compound in water incubated at 95 degreeC for 4 hrs by HPLC analysis; type: physicochemical; conditions: buffer
[19] = Thermal stability of compound in water assessed as antibacterial activity against Mycobacterium smegmatis DSM 43080 by measuring zone of inhibition incubated up to 8 hrs at 95 degreeC by agar diffusion assay; type: physicochemical; conditions: buffer
Staphylococcus aureus [20] = assay: Bactericidal activity against Staphylococcus aureus DSM 20231 assessed as reduction in colony count and measured after 3 days by agar diffusion assay; type: functional; conditions: DSM 20231, 72 h, time 3 day
Klebsiella oxytoca [21] = assay: Bactericidal activity against Klebsiella oxytoca DSM 5175 assessed as reduction in colony count and measured after 3 days by agar diffusion assay; type: functional; conditions: DSM 5175, 72 h, time 3 day
Staphylococcus aureus [22] = assay: Antibacterial activity against Staphylococcus aureus DSM 20231 assessed as reduction in bacterial growth measured after 3 days by broth microdilution method; type: functional; conditions: DSM 20231, 72 h, time 3 day
Mycolicibacterium phlei [23] = assay: Antibacterial activity against Mycobacterium phlei DSM 43239 assessed as reduction in bacterial growth measured after 3 days by broth microdilution method; type: functional; conditions: DSM 43239, 72 h, time 3 day
Enterobacter cloacae [24] = assay: Bactericidal activity against Enterobacter cloacae DSM 30054 assessed as reduction in colony count and measured after 3 days by agar diffusion assay; type: functional; conditions: DSM 30054, 72 h, time 3 day

| Compound | MIC (Bacillus cereus [1]) | MBC (Enterococcus faecium [2]) | MBC (Pseudomonas aeruginosa [3]) | MBC [4] | MIC (Klebsiella oxytoca [7]) | MIC (Acinetobacter baumannii [10]) | MIC (Enterobacter cloacae [11]) | MIC (Pseudomonas aeruginosa [12]) | MBC (Mycolicibacterium phlei [14]) | MIC (Enterococcus faecium [16]) | MIC [17] | MIC (Staphylococcus aureus [22]) | MIC (Mycolicibacterium phlei [23]) | other results |
| --- | --- | --- | --- | --- | --- | --- | --- | --- | --- | --- | --- | --- | --- | --- |
| CC[C@H](C)[C@H](NC(=O)CNC(=O)[C@@H]1CC(=O)N[C@@H](CO)C(=O)N[C@@H](CCCCN)C(=O)N[C@@H](CCCCN)C(=O)N[C@@H](CO)C(=O)N[C@@H](CCCCN)C(=O)N2CCC[C@H]2C(=O)NCC(=O)N1)C(=O)N[C@@H](CCCNC(=N)N)C(=O)NCC(=O)N[C@@H](CCCCN)C(=O)NCC(=O)N[C@H](C(=O)N[C@@H](CCCNC(=N)N)C(=O)NCC(=O)O)C(C)C (SKKSKPGDGIRGKGVRG-OH; lactam N-8) | > 32 µg/mL | > 32 µg/mL | > 32 µg/mL | 0.5 µg/mL (≈ 0.293 µM) | > 32 µg/mL | > 32 µg/mL | > 32 µg/mL | > 32 µg/mL | > 0.125 µg/mL | > 32 µg/mL | 0.125 µg/mL (≈ 0.0731 µM) | > 32 µg/mL | 0.03 µg/mL (≈ 0.0176 µM) | Activity [5]: Tde; Activity [6]: Tde; Stability [8]: Stable; Stability [9]: Stable; MBC (Bacillus cereus [13]): > 32 µg/mL; MBC (Acinetobacter baumannii [15]): > 32 µg/mL; Stability [18]: Stable; Stability [19]: Stable; MBC (Staphylococcus aureus [20]): > 32 µg/mL; MBC (Klebsiella oxytoca [21]): > 32 µg/mL; MBC (Enterobacter cloacae [24]): > 32 µg/mL |
| NC[C@H]1O[C@H](O[C@H]2[C@H](O)[C@@H](O[C@H]3O[C@H](CO)[C@@H](O)[C@H](N)[C@H]3O)[C@H](N)C[C@@H]2N)[C@H](O)[C@@H](O)[C@@H]1O [KANAMYCIN] | 8 µg/mL (≈ 16.5 µM) | > 32 µg/mL | > 32 µg/mL | 0.5 µg/mL (≈ 1.03 µM) | 2 µg/mL (≈ 4.13 µM) | 2 µg/mL (≈ 4.13 µM) | 2 µg/mL (≈ 4.13 µM) | > 32 µg/mL | 1 µg/mL (≈ 2.06 µM) | > 32 µg/mL | 0.5 µg/mL (≈ 1.03 µM) | 2 µg/mL (≈ 4.13 µM) | 1 µg/mL (≈ 2.06 µM) |  |
| CO[C@H]1/C=C/O[C@@]2(C)Oc3c(C)c(O)c4c(O)c(c(/C=N/N5CCN(C)CC5)c(O)c4c3C2=O)NC(=O)/C(C)=C\C=C\[C@H](C)[C@H](O)[C@@H](C)[C@@H](O)[C@@H](C)[C@H](OC(C)=O)[C@@H]1C [RIFAMPIN] | 0.25 µg/mL (≈ 0.304 µM) |  | > 32 µg/mL | 8 µg/mL (≈ 9.72 µM) | 4 µg/mL (≈ 4.86 µM) | 1 µg/mL (≈ 1.22 µM) | 16 µg/mL (≈ 19.4 µM) | > 32 µg/mL | 0.06 µg/mL (≈ 0.0729 µM) | 8 µg/mL (≈ 9.72 µM) | 8 µg/mL (≈ 9.72 µM) | 0.004 µg/mL (≈ 0.00486 µM) | 0.03 µg/mL (≈ 0.0365 µM) |  |
